Laboratory results: US11896573B2, “Pharmaceutical compositions and pharmacokinetics of a gamma-hydroxybutyric acid derivative” (priority 2020, dated 2024)

Experiment: Food effect and relative bioavailability crossover study, Compound (1) vs sodium oxybate
Settings: 7.25 g Compound (1) oral; for AUC(0-inf) / AUC(0-t) / Cmax / half-life / Tmax: human, plasma, po, 7.25 g; for AUC(0-inf): Compound (1) plasma AUC0-inf; for Tmax: Compound (1) plasma Tmax

Compound: CC(C)[C@H](N)C(=O)OCCCC(=O)O [Compound (1), 4-((L-valyl)oxy)butanoic acid]
- plasma Compound (1) AUC0-tlast, Adjusted Geometric Mean Ratio (Fed vs Fasted): 1.28
- plasma Compound (1) Cmax, Adjusted Geometric Mean Ratio (Fed vs Fasted): 0.65
- Compound (1) plasma AUC0-inf, Max (Fasted): 30.8 µg·h/mL
- Compound (1) plasma AUC0-inf, Min (Fasted): 9.5 µg·h/mL
- Compound (1) plasma AUC0-tlast, Max (Fasted): 36.1 µg·h/mL
- Compound (1) plasma AUC0-tlast, Min (Fasted): 9.4 µg·h/mL
- Compound (1) plasma Cmax, Max (Fasted): 43.6 µg/mL
- Compound (1) plasma Cmax, Min (Fasted): 9.4 µg/mL
- Compound (1) plasma T1/2, Max (Fasted): 114 min
- Compound (1) plasma T1/2, Min (Fasted): 16.2 min
- Compound (1) plasma AUC0-inf, Max (Fed): 39.0 µg·h/mL
- Compound (1) plasma AUC0-inf, Min (Fed): 16.0 µg·h/mL
- Compound (1) plasma AUC0-tlast, Max (Fed): 38.6 µg·h/mL
- Compound (1) plasma AUC0-tlast, Min (Fed): 15.9 µg·h/mL
- Compound (1) plasma Cmax, Max (Fed): 27.8 µg/mL
- Compound (1) plasma Cmax, Min (Fed): 5.5 µg/mL
- Compound (1) plasma T1/2, Max (Fed): 69 min
- Compound (1) plasma T1/2, Min (Fed): 16.2 min
- Compound (1) plasma Tmax, Max (Fed): 90 min
- AUC(0-inf) (Mean, Fasted): 22.4 µg·h/mL
- AUC(0-inf) (Mean, Fed): 29 µg·h/mL
- AUC(0-inf) (Median, Fasted): 20.4 µg·h/mL
- AUC(0-inf) (Median, Fed): 29.1 µg·h/mL
- AUC(0-t) (Compound (1) plasma AUC0-tlast, Mean, Fasted): 23.9 µg·h/mL
- AUC(0-t) (Compound (1) plasma AUC0-tlast, Mean, Fed): 28.8 µg·h/mL
- AUC(0-t) (Compound (1) plasma AUC0-tlast, Median, Fasted): 22.5 µg·h/mL
- AUC(0-t) (Compound (1) plasma AUC0-tlast, Median, Fed): 29 µg·h/mL
- Cmax (Compound (1) plasma Cmax, Mean, Fasted): 27.7 µg/mL
- Cmax (Compound (1) plasma Cmax, Mean, Fed): 18.1 µg/mL
- Cmax (Compound (1) plasma Cmax, Median, Fasted): 27.3 µg/mL
- Cmax (Compound (1) plasma Cmax, Median, Fed): 17.3 µg/mL
- half-life (Compound (1) plasma T1/2, Mean, Fasted): 32.4 min
- half-life (Compound (1) plasma T1/2, Mean, Fed): 38.4 min
- half-life (Compound (1) plasma T1/2, Median, Fasted): 21 min
- half-life (Compound (1) plasma T1/2, Median, Fed): 35.4 min
- Tmax (Median, Fasted): 45 min
- Tmax (Median, Fed): 30 min
- AUC(0-t) (plasma Compound (1) AUC0-tlast, Adjusted Geometric Mean, Fasted): 21 µg·h/mL
- AUC(0-t) (plasma Compound (1) AUC0-tlast, Adjusted Geometric Mean, Fed): 27 µg·h/mL
- Cmax (plasma Compound (1) Cmax, Adjusted Geometric Mean, Fasted): 25.4 µg/mL
- Cmax (plasma Compound (1) Cmax, Adjusted Geometric Mean, Fed): 16.5 µg/mL
